According to ChEMBL document CHEMBL1955741, “Identification of fused bicyclic heterocycles as potent and selective 5-HT(2A) receptor antagonists for the treatment of insomnia” (Bioorg Med Chem Lett, 2012):
Activity calls are given as the source filed them. No cut-off for these calls is given here.

What was measured:
[1] = target: 5-hydroxytryptamine receptor 2A (Homo sapiens, UniProt P28223)
Description: Displacement of [125I]-DOI from recombinant human 5HT2A receptor

[2] = target: T1, 5-hydroxytryptamine receptor 2C (Homo sapiens, UniProt P28335)
T1 sequence (P28335 whole entry): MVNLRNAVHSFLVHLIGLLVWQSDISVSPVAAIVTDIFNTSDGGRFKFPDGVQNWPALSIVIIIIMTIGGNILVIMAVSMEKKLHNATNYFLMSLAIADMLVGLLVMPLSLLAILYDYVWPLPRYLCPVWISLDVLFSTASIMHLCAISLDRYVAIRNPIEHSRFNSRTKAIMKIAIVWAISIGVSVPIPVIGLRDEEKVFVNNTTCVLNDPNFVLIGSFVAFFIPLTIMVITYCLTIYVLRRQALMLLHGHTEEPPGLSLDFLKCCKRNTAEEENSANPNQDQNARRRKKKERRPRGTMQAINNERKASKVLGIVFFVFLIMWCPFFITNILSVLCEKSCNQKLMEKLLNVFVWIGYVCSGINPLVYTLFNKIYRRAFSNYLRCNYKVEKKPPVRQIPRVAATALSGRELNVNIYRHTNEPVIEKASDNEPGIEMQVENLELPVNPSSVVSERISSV

[3] = system: Rattus norvegicus; experiment: Total clearance in iv dosed rat; type: ADME, organism-based; settings: in vivo
[4] = Cmax in rat at 3 mg/kg, po; type: ADME, organism-based; parameters: dose 3 mg/kg, route oral; settings: in vivo
[5] = target: D(2) dopamine receptor (Homo sapiens) (UniProt P14416); experiment: Binding affinity to dopamine receptor D2 at 10 uM
Sequence of D(2) dopamine receptor (Homo sapiens) (P14416 whole entry): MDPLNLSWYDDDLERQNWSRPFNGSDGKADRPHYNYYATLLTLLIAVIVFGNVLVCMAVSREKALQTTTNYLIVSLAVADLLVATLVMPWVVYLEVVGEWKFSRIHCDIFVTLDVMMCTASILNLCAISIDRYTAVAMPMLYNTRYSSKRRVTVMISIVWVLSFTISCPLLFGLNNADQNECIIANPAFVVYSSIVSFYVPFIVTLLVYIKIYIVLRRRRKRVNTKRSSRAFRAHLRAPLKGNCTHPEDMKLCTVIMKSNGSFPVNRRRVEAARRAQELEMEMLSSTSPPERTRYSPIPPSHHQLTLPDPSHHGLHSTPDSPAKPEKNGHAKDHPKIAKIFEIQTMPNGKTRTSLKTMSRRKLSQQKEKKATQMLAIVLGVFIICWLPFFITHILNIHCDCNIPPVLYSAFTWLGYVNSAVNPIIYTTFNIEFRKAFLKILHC

[6] = target: Cytochrome P450 2D6 (Homo sapiens, UniProt P10635); experiment: Inhibition of CYP2D6 in human liver microsomes; type: ADME, Microsome
Sequence of Cytochrome P450 2D6 (P10635 whole entry): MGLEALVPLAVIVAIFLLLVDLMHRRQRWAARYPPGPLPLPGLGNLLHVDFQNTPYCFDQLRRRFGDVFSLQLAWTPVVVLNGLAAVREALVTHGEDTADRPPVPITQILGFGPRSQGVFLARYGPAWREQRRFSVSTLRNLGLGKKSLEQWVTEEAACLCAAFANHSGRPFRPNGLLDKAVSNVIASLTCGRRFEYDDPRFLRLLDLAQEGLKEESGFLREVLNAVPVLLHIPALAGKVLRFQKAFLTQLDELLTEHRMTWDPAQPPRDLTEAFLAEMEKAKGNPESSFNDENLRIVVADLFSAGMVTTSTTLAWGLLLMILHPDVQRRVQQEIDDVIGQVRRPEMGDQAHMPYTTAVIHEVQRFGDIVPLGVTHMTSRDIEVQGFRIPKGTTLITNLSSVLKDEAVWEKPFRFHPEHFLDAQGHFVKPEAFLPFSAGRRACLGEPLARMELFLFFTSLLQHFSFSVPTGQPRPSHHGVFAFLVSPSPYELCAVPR

[7] = system: Rattus norvegicus; experiment: Inhibition of DOI-induced hypolocomotion in rat drug coadministered with DOI 10 mins prior testing; type: functional
[8] = target: T2, Alpha-2A adrenergic receptor (Homo sapiens) (UniProt P08913); experiment: Binding affinity to adrenergic alpha 2 receptor at 10 uM
T2 sequence (whole entry): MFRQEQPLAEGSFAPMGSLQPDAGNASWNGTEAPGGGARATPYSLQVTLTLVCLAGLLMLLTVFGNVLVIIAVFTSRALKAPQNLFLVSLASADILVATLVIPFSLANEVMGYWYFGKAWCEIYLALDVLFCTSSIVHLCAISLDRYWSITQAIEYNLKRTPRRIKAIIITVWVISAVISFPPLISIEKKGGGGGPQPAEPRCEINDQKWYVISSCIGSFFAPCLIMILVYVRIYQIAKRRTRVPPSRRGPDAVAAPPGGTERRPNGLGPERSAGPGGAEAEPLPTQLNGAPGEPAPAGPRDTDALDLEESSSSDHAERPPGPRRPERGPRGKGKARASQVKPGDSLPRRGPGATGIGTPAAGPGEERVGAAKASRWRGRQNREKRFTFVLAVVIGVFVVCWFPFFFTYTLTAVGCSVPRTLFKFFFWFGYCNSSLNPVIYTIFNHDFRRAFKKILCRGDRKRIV

[9] = Plasma concentration in rat at 0.3 mg/kg after 0.75 hrs; type: ADME, organism-based; parameters: dose 0.3 mg/kg
[10] = target: T3, Alpha-1A adrenergic receptor (Homo sapiens) (UniProt P35348); experiment: Binding affinity to adrenergic alpha 1 receptor at 10 uM
T3 sequence (whole entry): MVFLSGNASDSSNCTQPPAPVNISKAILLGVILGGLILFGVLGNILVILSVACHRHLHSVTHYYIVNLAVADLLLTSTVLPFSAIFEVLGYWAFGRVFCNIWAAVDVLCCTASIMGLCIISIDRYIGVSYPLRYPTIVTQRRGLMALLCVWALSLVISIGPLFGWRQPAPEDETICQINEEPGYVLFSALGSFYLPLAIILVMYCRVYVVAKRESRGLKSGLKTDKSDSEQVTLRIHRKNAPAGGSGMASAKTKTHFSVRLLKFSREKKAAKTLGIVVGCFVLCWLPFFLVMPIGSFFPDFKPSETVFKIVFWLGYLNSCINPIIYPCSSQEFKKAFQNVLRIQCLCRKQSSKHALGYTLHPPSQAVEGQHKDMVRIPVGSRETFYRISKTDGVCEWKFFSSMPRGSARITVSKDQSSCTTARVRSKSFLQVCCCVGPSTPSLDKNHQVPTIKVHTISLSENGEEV

[11] = Plasma protein binding in human; type: ADME, cell-free; settings: read-out: PPB (converted)
[12] = target: Cytochrome P450 2C19 (Homo sapiens, UniProt P33261); experiment: Inhibition of […] in human liver microsomes; type: ADME, Microsome
Sequence of Cytochrome P450 2C19 (P33261 whole entry): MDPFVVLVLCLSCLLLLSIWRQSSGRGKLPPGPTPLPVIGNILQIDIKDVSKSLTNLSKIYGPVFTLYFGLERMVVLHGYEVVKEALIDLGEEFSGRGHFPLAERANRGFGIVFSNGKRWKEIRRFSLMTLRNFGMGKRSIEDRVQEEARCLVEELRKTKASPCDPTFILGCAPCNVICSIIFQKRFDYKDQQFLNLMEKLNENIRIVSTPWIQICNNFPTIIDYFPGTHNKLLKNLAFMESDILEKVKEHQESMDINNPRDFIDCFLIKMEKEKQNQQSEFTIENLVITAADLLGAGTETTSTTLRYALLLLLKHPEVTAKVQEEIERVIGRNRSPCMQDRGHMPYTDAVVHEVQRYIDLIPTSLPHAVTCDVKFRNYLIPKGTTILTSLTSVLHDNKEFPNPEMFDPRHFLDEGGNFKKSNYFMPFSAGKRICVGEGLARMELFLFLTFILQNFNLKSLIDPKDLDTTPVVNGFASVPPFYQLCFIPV

[13] = system: Rattus norvegicus; experiment: AUClast in rat at 3 mg/kg, po; type: ADME, organism-based, Plasma; parameters: time 0 - last, dose 3 mg/kg, route oral; settings: in vivo
[14] = system: Canis familiaris; experiment: Toxicity in telemetered dog model assessed as change in ECG measures upto 30 mg/kg; type: organism-based, Canis lupus familiaris; parameters: dose 30 mg/kg; settings: in vivo
[15] = target: Cytochrome P450 2C9 (Homo sapiens, UniProt P11712); experiment: Inhibition of CYP2C9 in human liver microsomes; type: ADME, Microsome
Sequence of Cytochrome P450 2C9 (P11712 whole entry): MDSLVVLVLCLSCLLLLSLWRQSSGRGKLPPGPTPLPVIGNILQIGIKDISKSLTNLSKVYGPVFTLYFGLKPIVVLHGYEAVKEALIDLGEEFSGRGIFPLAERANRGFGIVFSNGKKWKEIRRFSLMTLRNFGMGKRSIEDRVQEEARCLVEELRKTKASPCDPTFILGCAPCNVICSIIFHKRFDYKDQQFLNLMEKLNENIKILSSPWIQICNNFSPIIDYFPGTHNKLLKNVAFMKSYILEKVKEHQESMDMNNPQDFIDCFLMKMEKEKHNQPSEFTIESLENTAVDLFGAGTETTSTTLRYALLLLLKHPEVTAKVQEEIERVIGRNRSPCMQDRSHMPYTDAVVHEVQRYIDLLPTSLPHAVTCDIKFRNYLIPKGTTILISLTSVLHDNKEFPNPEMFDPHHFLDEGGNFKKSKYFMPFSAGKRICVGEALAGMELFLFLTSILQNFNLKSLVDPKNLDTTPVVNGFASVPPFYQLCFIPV

[16] = target: D(3) dopamine receptor (Homo sapiens) (UniProt P35462); experiment: Binding affinity to dopamine receptor D3 at 10 uM
Sequence of D(3) dopamine receptor (Homo sapiens) (P35462 whole entry): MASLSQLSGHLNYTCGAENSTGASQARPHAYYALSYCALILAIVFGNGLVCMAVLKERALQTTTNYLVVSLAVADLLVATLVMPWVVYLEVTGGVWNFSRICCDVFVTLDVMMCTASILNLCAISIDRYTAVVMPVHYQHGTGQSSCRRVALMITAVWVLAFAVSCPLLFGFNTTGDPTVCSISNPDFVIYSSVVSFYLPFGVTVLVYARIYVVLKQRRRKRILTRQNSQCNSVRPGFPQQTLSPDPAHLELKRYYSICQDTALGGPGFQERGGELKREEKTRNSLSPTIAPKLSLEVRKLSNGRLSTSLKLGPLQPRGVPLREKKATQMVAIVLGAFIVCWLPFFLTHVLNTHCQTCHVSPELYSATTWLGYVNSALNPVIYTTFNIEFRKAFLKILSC

[17] = system: Rattus norvegicus; experiment: Antiinsomnia activity in po dosed rat assessed as increase in non-rapid eye movement bout duration after 5 hrs; type: functional, organism-based
[18] = system: Rattus norvegicus; experiment: Antiinsomnia activity in po dosed rat assessed as increase in sleep consolidation after 5 hrs; type: functional, organism-based
[19] = target: D(1A) dopamine receptor (Homo sapiens) (UniProt P21728); experiment: Binding affinity to dopamine receptor D1 at 10 uM
Sequence of D(1A) dopamine receptor (Homo sapiens) (P21728 whole entry): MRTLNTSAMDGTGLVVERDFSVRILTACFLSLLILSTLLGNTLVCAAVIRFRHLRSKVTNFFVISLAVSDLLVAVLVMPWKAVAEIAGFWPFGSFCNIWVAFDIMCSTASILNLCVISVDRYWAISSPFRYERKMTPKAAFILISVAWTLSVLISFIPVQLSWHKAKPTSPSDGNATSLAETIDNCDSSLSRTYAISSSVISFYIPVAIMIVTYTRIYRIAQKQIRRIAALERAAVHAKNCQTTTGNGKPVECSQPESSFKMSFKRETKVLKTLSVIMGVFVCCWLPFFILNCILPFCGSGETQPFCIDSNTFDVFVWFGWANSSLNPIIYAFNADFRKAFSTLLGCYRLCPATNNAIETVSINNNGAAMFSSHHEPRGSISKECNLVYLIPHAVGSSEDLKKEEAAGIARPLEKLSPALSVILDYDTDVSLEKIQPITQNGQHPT

[20] = target: D(1B) dopamine receptor (Homo sapiens) (UniProt P21918); experiment: Binding affinity to dopamine receptor D5 at 10 uM
Sequence of D(1B) dopamine receptor (Homo sapiens) (P21918 whole entry): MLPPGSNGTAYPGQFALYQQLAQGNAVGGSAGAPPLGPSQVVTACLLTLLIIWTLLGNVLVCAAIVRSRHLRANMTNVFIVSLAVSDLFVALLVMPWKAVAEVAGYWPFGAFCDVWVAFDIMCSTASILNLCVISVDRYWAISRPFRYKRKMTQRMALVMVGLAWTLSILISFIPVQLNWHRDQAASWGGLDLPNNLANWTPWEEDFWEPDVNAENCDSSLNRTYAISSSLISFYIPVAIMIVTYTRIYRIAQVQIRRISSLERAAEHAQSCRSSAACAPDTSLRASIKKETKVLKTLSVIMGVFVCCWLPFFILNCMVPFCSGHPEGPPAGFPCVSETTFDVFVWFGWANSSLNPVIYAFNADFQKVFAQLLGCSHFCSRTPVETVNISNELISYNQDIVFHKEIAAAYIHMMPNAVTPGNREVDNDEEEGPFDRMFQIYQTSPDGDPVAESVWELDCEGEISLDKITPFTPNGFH

[21] = system: Rattus norvegicus; experiment: Oral bioavailability in rat; type: ADME, organism-based; settings: in vivo
[22] = Ratio of drug level in brain to plasma in rat at 0.3 mg/kg; type: ADME, organism-based; parameters: dose 0.3 mg/kg; settings: read-out: BPR
[23] = system: Rattus norvegicus; experiment: Antiinsomnia activity in po dosed rat assessed as decrease in non-rapid eye movement bout number after 5 hrs; type: functional, organism-based
[24] = system: Rattus norvegicus; experiment: Antiinsomnia activity in rat assessed as increase in delta power at 0.1 mg/kg, po after 3 to 4 hrs; type: functional, organism-based; parameters: dose 0.1 mg/kg
[25] = system: Rattus norvegicus; experiment: Antiinsomnia activity in rat assessed as increase in delta power at 0.1 mg/kg, po after 1 hr; type: functional, organism-based; parameters: dose 0.1 mg/kg
[26] = system: Rattus norvegicus; experiment: Volume of distribution at steady state in […] rat; type: ADME, organism-based; settings: in vivo
[27] = target: T4, Cytochrome P450 1A2 (Homo sapiens, UniProt P05177); experiment: Inhibition of CYP1A2 in human liver microsomes; type: ADME, Microsome
T4 sequence (P05177 whole entry): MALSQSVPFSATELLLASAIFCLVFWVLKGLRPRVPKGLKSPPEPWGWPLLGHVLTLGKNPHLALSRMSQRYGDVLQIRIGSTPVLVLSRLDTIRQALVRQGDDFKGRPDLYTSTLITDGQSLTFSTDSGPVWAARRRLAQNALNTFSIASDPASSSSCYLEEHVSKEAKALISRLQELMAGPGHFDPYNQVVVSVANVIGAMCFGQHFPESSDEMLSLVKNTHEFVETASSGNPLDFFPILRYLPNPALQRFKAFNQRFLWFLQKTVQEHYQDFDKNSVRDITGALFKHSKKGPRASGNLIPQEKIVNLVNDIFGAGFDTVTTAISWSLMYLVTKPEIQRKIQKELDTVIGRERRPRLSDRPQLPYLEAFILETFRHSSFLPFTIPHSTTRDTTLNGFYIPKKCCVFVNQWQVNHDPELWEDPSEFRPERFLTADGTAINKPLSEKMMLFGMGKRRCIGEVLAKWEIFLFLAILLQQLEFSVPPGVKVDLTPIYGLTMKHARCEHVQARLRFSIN

[28] = Half life in rat liver microsomes; type: ADME, Microsome
[29] = Half life in po dosed rat; type: ADME, organism-based; settings: in vivo
[30] = target: Cytochrome P450 3A4 (Homo sapiens, UniProt P08684); experiment: Inhibition of CYP3A4 in human liver microsomes; type: ADME, Microsome
Sequence of Cytochrome P450 3A4 (P08684 whole entry): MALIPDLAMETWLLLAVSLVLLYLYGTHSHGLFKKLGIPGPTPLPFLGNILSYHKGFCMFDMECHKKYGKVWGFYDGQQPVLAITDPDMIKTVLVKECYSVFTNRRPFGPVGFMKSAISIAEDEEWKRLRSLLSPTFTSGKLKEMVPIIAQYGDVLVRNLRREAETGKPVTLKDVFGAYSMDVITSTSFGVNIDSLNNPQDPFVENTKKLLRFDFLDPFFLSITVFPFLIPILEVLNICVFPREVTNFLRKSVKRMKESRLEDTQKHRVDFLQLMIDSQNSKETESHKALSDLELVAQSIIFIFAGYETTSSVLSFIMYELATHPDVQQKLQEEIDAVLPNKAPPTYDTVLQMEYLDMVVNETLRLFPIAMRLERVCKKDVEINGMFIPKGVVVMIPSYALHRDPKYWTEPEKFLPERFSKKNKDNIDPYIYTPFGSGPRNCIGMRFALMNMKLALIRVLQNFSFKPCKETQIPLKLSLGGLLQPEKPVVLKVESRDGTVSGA

[31] = target: T5, D(4) dopamine receptor (Homo sapiens) (UniProt P21917); experiment: Binding affinity to dopamine receptor D4 at 10 uM
T5 sequence (whole entry): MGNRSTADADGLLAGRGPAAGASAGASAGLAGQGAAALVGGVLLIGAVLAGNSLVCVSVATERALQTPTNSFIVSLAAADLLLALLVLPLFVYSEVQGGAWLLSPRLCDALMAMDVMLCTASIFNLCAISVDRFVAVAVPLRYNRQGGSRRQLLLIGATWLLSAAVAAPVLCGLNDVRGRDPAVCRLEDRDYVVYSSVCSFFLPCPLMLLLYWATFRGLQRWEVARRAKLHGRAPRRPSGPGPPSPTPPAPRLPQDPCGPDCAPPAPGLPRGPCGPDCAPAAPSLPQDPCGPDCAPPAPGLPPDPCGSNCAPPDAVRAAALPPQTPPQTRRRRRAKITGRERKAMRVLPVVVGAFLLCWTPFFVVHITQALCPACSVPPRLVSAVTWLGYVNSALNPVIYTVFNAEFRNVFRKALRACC

[32] = Drug uptake in rat brain at 0.3 mg/kg after 0.75 hrs; type: ADME, organism-based; parameters: dose 0.3 mg/kg; settings: read-out: Drug uptake
[33] = system: Canis familiaris; experiment: Toxicity in telemetered dog model assessed as change in hemodynamic measures upto 30 mg/kg; type: organism-based, Canis lupus familiaris; parameters: dose 30 mg/kg; settings: in vivo

Sequence of 5-hydroxytryptamine receptor 2A (P28223 whole entry): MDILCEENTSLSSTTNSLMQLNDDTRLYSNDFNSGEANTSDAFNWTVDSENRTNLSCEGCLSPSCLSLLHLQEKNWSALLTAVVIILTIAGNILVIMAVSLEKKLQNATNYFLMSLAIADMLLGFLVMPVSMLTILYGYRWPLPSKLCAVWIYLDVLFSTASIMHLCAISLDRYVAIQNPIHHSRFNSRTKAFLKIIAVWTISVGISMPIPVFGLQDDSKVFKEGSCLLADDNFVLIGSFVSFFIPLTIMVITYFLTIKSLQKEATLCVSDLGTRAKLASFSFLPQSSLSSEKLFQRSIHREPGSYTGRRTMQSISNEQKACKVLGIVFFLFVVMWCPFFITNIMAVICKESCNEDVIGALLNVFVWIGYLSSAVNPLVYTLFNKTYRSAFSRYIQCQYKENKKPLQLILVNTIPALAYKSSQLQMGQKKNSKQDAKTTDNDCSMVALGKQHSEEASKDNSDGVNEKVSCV

SMILES: O=C(c1cnc2ccccn12)N1CCN(CCc2ccc(F)cc2F)CC1
- Ki [1]: 1.7 nM
- Ki [2]: 739 nM

SMILES: O=C(c1cc2n(n1)CCCC2)N1CCN(CCc2ccc(F)cc2F)CC1
- Ki [1]: 2.6 nM
- Ki [2]: 717 nM

SMILES: O=C(c1cccn2ccnc12)N1CCN(CCc2ccc(F)cc2F)CC1
- clearance [3]: 3.5 L/h/kg
- Cmax [4]: 943 ng/mL
- Activity [5]: < 50%
- IC50 [6]: > 40 µM
- ED50 [7]: 0.3 mg/kg
- Activity [8]: < 50%
- concentration at 0.75 h [9]: 11 ng/mL
- Activity [10]: < 50%
- fraction unbound [11]: 0.326
- IC50 [12]: > 40 µM
- AUClast [13]: 440 ng·h/mL
- Activity [14]: Non-toxic
- IC50 [15]: > 40 µM
- Activity [16]: < 50%
- Activity [17]: Dose-dependent effect
- Activity [18]: Dose-dependent effect
- Activity [19]: < 50%
- Activity [20]: < 50%
- bioavailability [21]: 47%
- Kp [22]: 1.32
- Activity [23]: Dose-dependent effect
- Activity [24]: Active
- Activity [25]: Active
- Vdss [26]: 1.7 L/kg
- IC50 [27]: > 40 µM
- half-life [28]: 16 min
- half-life [29]: 30 min
- Ki [2]: 524 nM
- IC50 [30]: > 40 µM
- Activity [31]: < 50%
- concentration at 0.75 h [32]: 14.5 ng/mL
- Activity [33]: Non-toxic

SMILES: Cc1cc(C)n2ccnc2c1C(=O)N1CCN(CCc2ccc(F)cc2F)CC1
- Ki [1]: 3.6 nM
- Ki [2]: 153 nM

SMILES: O=C(c1cc(Br)cn2ccnc12)N1CCN(CCc2ccc(F)cc2F)CC1
- Ki [1]: 5 nM
- Ki [2]: 474 nM

SMILES: O=C(c1nc2ccccn2c1Br)N1CCN(CCc2ccc(F)cc2F)CC1
- Ki [1]: 1.9 nM
- Ki [2]: 581 nM

SMILES: O=C(c1cnn2cccnc12)N1CCN(CCc2ccc(F)cc2F)CC1
- Ki [1]: 3.8 nM
- Ki [2]: 910 nM

SMILES: N#Cc1cn2cccc(C(=O)N3CCN(CCc4ccc(F)cc4F)CC3)c2n1
- Ki [1]: 2.8 nM
- Ki [2]: 6900 nM

SMILES: Nc1cccn2cc(C(=O)N3CCN(CCc4ccc(F)cc4F)CC3)nc12
- Ki [1]: 2.7 nM
- Ki [2]: 190 nM

SMILES: O=C(c1nn2ccccc2c1Br)N1CCN(CCc2ccc(F)cc2F)CC1
- Ki [1]: 0.8 nM
- Ki [2]: 496 nM

SMILES: O=C(c1cccc2ccnn12)N1CCN(CCc2ccc(F)cc2F)CC1
- Ki [1]: 0.4 nM
- Ki [2]: 194 nM

SMILES: O=C(c1cnn2ccccc12)N1CCN(CCc2ccc(F)cc2F)CC1
- Ki [1]: 1.8 nM
- Ki [2]: 246 nM
